Data on four substances can be found in US20100166789A1, “PROTEINS FOR USE IN DIAGNOSING AND TREATING INFECTION AND DISEASE” (The Regents of the University of Colorado, priority 2008, published 2010).

The subject of assay [1] is cell surface bound CLIP on Raji and Daudi cells. Nature of the assay: Competition of synthetic peptides with cell surface CLIP (Fitc anti-human CLIP). In kind it is cell-based. To be noted: biotinylated peptides. From the text:
Based on a computational model comparing the peptide content of TNP mixture and identifying those peptides that would have the likeliest ability to compete for the peptide/antigen binding site for MHC class II (human HLA-DR, DP, and DQ), several peptide candidates were synthesized and examined for activity. The purpose of the study was to determine if synthetic peptides can compete for binding with CLIP peptides as measured with either Fitc anti-human CLIP antibody or, comparatively in the case of biotinylated peptides, with Streptavidin.
Cell Culture Conditions: The Raji and Daudi cell lines were purchased from American Type Culture Collection, were thawed, and grown in RPMI 1640 medium supplemented with standard supplements, including 10% fetal calf serum, gentamycin, penicillin, streptomycin, sodium pyruvate, HEPES buffer, 1-glutamine, and 2-ME.
Protocol: Cells were plated into a 12 well plate with 3 mls total volume containing approximately 1.5×10^6/well for Daudi cells and 3.0×10^6/well for Raji cells. Treatment groups included no treatment as control; MKN 3 and MKN 5 at 50 microMolar final concentration based on the reported molarity of the synthesized compounds.
The cells were incubated at 37° C. in an atmosphere containing 5% CO2 and approximately 92% humidity. The cells were incubated for 4 and 24 hours. At each time point, the cells from that experimental time were harvested and stained for flow cytometric analysis of cell surface expression of CLIP (MHC Class II invariant peptide, human) by using the commercially available (Becton/Dickinson/PHarmingen) anti-human CLIP Fitc. Catalogue #555981 versus Streptavidin.
Harvested cells were stained using standard staining procedure that called for a 1:100 dilution of Fitc-anti-human CLIP or isotype control versus 1:200 dilution of the commercially prepared Streptavidin. Following staining on ice for 25 minutes, cells were washed with PBS/FCS and resuspended in 100 microliters and added to staining tubes containing 400 microliters of PBS. Samples were acquired and analyzed on a Coulter Excel Flow Cytometer.
In the Histogram analyses of FIGS. 4-6 the Y axis represents cell number of the 5000 live cells versus the X axis which is a reflection of relative Fitc fluorescence versus Streptavidin-PE (eBioscience, Cat. #12-4317) that will bind with high affinity to cell-bound biotinylated peptides. The distance between the histogram from the isotype control staining versus the histogram reflecting the specific stain and is a measure of level of cell surface CLIP or the biotinylated peptide when stained with Streptavidin on a population of live Raji or Daudi cells as indicated.

Assay [2] deals with cell surface CLIP on Raji or Daudi cells. To be noted: 24 and 48 hours; cited from earlier work.
The subject of assay [3] is cell surface CD74 on Raji or Daudi cells. To be noted: 24 and 48 hours; cited from earlier work.
The target in assay [4] is gp41 HIV-1 envelope protein (gp41 fragment) of Example 14 (HIV-1). Nature of the assay: native gel electrophoresis, quantitative analysis.

No end group written: not given here. *: point of attachment. Biotin = O=C1N[C@H]2[C@H](CS[C@H]2CCCCC(=O)*)N1

Turning to “FRIMAVLAS [SGG GAN SGF RIM AVL ASG GQY, unmodified form is MKN.4]”, the entries for the “Cell surface bound CLIP (Fitc-Anti-CLIP)” value in assay [1] (4 hours) and in assay [1] (24 hours) were “small decreases” and “significant decreases”, respectively. Consider SGG GSK MRM ATP LLM QAL Y [MKN1], for which the “Cell surface CLIP levels” value in assay [2] was “alters”. Also, the “Cell surface CD74 levels” value in assay [3] is given as “alters”. For the substance “SGG GKA LVQ NDT LLQ VKG (Biotin-SGGGKALVQNDTLLQVKG) [TNP1]”, the “Cell surface bound CLIP (Fitc-Anti-CLIP)” value in assay [1] (4 hours) was “small decreases”; in assay [1] (24 hours), “significant decreases”.

“thymus nuclear protein (TNP) extract from calf thymus”: in assay [4], the binding stoichiometry (TNP to gp41) (gp41 per 1 TNP (ratio 1:0.8)) was determined as 0.8.
